Columns and labels:
Assay type in all cases: in vivo
[1] = system: Sitobion miscanthi (Fabricius); experiment: whole plant or invertebrate; conditions: for Measured mortality rate: single pesticide, 48 hours
Protocol: Test target: Sitobion miscanthi (Fabricius).
(§1) Preparation of the pesticide solution: according to different test requirements, the test samples were accurately weighed respectively with an electronic analytical balance. The technical pesticides were dissolved in acetone, and then diluted with 0.1% Tween 80 water into a series of pesticide solutions with a certain concentration gradient according to the experimental design dosage.
Experimental method: first, wheat seedlings with uniform and consistent Sitobion miscanthi (Fabricius) were selected, with about 30-40 insects on each pot of wheat. Then, they were evenly sprayed with the pesticide solution in the order from low dosage to high dosage according to the experimental design, with 2.5 mL for each pot and 3 replicates for each treatment. In addition, a blank control CK was set up.
(§2) The treated test materials were placed in an observation room, and the temperature, humidity and illumination of the observation room could be adjusted as needed. The number of dead and alive insects was investigated 48 hours later, and the corrected mortality rate was calculated using the Abbott's formula.
The synergism of the mixture was evaluated by the Bliss method. According to the concept of independent joint action he proposed, Bliss believes that the theoretical mortality rate P when insecticides are used in combination can be calculated by the following formula: […]
Pm is the measured mortality rate (%) of the target when the first active ingredient is at a concentration of m; and Pn is the measured mortality rate (%) of the target when the second active ingredient is used at a concentration of n.
(§3) If the actual mortality rate of the target after the two active ingredients are mixed at a certain concentration is greater than theoretical mortality rate P, it is determined that the two active ingredients have a synergistic effect when used in combination at the set concentration, and otherwise, they have an antagonistic effect.

[2] = system: 3rd-instar larvae of Pyrausta nubilalis Hubern; experiment: Synergism assay (Bliss) of I-72 + cartap, monosultap, bisultap, Example 5, Table 5; conditions: 72 h
Protocol: Test subject: 3rd-instar larvae of Pyrausta nubilalis Hubern, a sensitive strain reared indoors.
Test conditions: temperature: 24-26° C., humidity: RH 60%, and illumination: L:D=14:10
Preparation method: the test pesticides were accurately weighed respectively with an electronic analytical balance. After the two technical materials were respectively added into an appropriate amount of solvent and completely dissolved, the stock solution of the required concentration was prepared with water containing 0.1% Tween 80. The stock solutions of the two active ingredients were mixed in a certain ratio to prepare a mixed solution, which was then diluted respectively into a series of pesticide solutions with a certain concentration gradient according to the experimental design dosage.
Experimental method: the artificial diet-pesticide film method was adopted. A standard clean 24-well culture plate was selected. 1 ml of artificial diet was added to each well. After the diet cooled and solidified, a quantitative amount of a pesticide solution was added to the culture plate using a continuous sampler, and then it was air-dried naturally in the shade. The standard test insects were introduced, with 1 insect in each well, a total of 48 insects. The treated test insects were placed in an observation room under certain conditions. The reaction of the test insects was regularly observed, and the number of dead and live insects was investigated 72 h later.
The evaluation method adopted was the Bliss method. This method is applicable to the qualitative screening of insecticidal compositions. According to the concept of independent joint action he proposed, Bliss believes that the theoretical mortality rate P when insecticides are used in combination can be calculated by the following formula: […]
Pm is the mortality rate (%) of the target when the first active ingredient is at a concentration of m; and Pn is the mortality rate (%) of the target when the second active ingredient is at a concentration of n.
as §3

[3] = system: 3rd-instar larvae of Ostrinia furnacalis Guenee; experiment: Synergism screening (Bliss) of I-72 + ecdysteroid and juvenile hormone insecticides, Example 51, Table 51; conditions: for Measured mortality rate: single pesticide, 72 hours
Protocol: Test target: 3rd-instar larvae of Ostrinia furnacalis Guenee.
as §1
Experimental method: first, tender corn stems were selected and dipped in the prepared pesticide solution for 10 s in the order from low dosage to high dosage according to the experimental design. After natural air-drying in the shade, they were placed in a 9-cm-diameter Petri dish with filter paper, and uniform and healthy test insects were introduced, with 10 insects for each treatment and 3 replicates for each treatment. In addition, a blank control (CK) was set up.
as §2, with “72” for “48”
The synergism of the mixture was evaluated by adopting the Bliss method, as in Example 5.

Rhizoctonia solani = experiment: Control efficacy against Rhizoctonia solani, rice seedling potting method, Example 89, Table 89; conditions: rice seedlings, foliar spraying
Protocol: Control efficacy of the composition containing the compound I-72 against Rhizoctonia solani
Test target: Rhizoctonia solani, a sensitive strain cultured indoors.
The trial adopted the seedling potting method. Test crop: rice. Experimental method: the rice seedlings were cultured to the 2-leaf stage in the greenhouse of the experimental materials. Foliar spraying treatment was performed on the crop sprayer according to the designed dosage. The test target strain was inoculated 24 hours after the pesticide treatment. All the inoculated experimental materials were cultured in a phytotron. […] The disease grading and the calculation method of the control efficacy both referred to the agricultural industry standards of the People's Republic of China.

[4] = Sitobion miscanthi, in Triticum aestivum, 48 h, read-out: Measured mortality rate
[5] = Ostrinia nubilalis, read-out: Mortality rate (%)
[6] = Ostrinia furnacalis, 72 h, read-out: Measured mortality rate

SMILES: CC(C)(C)[C@@H](O)[C@@H](Cc1ccc(Cl)cc1)n1cncn1 (racemic) [Paclobutrazol]
- mortality at 1 µg/mL [1, 4]: 6.8%
- mortality at 10 µg/mL [1, 4]: 7.8%
- mortality at 100 µg/mL [1, 4]: 11.3%

SMILES: CN(C)C(CSS(=O)(=O)[O-])CSS(=O)(=O)[O-].[Na+].[Na+] [Bisultap, bisultap]
- Mortality rate (%) ([2]; single agent 0.1 mg/L): 0%
- Mortality rate (%) ([2]; single agent 1 mg/L): 4.17%
- Mortality rate (%) ([2]; single agent 5 mg/L): 10.42%
- Mortality rate (%) ([2]; single agent 10 mg/L): 22.92%

SMILES: CC(C)[C@H](C)[C@@H](O)[C@H](O)[C@@H](C)[C@H]1CC[C@H]2[C@@H]3COC(=O)[C@H]4C[C@H](O)[C@H](O)C[C@]4(C)[C@H]3CC[C@]12C [Brassinolide]
- Measured mortality rate ([1]; 0.5 mg/L): 6.7%
- Measured mortality rate ([1]; 10 mg/L): 8.8%
- Measured mortality rate ([1]; 200 mg/L): 12.6%

SMILES: CN(C)C(CSC(N)=O)CSC(N)=O [Cartap, cartap]
- mortality at 0.1 µg/mL [2, 5]: 2.08%
- mortality at 1 µg/mL [2, 5]: 10.4%
- mortality at 5 µg/mL [2, 5]: 20.8%
- mortality at 10 µg/mL [2, 5]: 43.8%

SMILES: Nc1nc(N)nc(NC2CC2)n1 [Cyromazine]
- mortality at 0.1 µg/mL [3, 6]: 6.9%
- mortality at 2 µg/mL [3, 6]: 10.7%
- mortality at 40 µg/mL [3, 6]: 21.2%

SMILES: O=P(O)(O)CCCl [Ethephon]
- mortality at 0.2 µg/mL [1, 4]: 7%
- mortality at 10 µg/mL [1, 4]: 8.8%
- mortality at 500 µg/mL [1, 4]: 15%

SMILES: Cc1cc(C)cc(C(=O)N(NC(=O)c2ccc3c(c2C)OC(C)C3)C(C)(C)C)c1 (stereo not drawn) [Fufenozide]
- Measured mortality rate ([3]; 0.1 mg/L): 9.4%
- Measured mortality rate ([3]; 2 mg/L): 15.4%
- Measured mortality rate ([3]; 40 mg/L): 41.9%

SMILES: C=C1C[C@]23C[C@@]1(O)CC[C@H]2[C@@]12C=C[C@H](O)[C@@](C)(C(=O)O1)[C@H]2[C@@H]3C(=O)O [Gibberellic acid]
- mortality at 0.5 µg/mL [1, 4]: 5.9%
- mortality at 10 µg/mL [1, 4]: 10%
- mortality at 200 µg/mL [1, 4]: 12.5%

SMILES: COc1cccc(C(=O)NN(C(=O)c2cc(C)cc(C)c2)C(C)(C)C)c1C [Methoxyfenozide]
- mortality at 0.1 µg/mL [3, 6]: 11.1%
- mortality at 2 µg/mL [3, 6]: 18.8%
- mortality at 40 µg/mL [3, 6]: 50%

SMILES: CN(C)C(CSS(=O)(=O)[O-])CSS(=O)(=O)O.[Na+] [Monosultap, monosultap]
- Mortality rate (%) ([2]; single agent 0.1 mg/L): 0%
- Mortality rate (%) ([2]; single agent 1 mg/L): 6.25%
- Mortality rate (%) ([2]; single agent 5 mg/L): 18.75%
- Mortality rate (%) ([2]; single agent 10 mg/L): 29.17%

SMILES: CC(COc1ccc(Oc2ccccc2)cc1)Oc1ccccn1 (stereo not drawn) [Pyriproxyfen]
- mortality at 0.04 µg/mL [3, 6]: 7.1%
- mortality at 2 µg/mL [3, 6]: 9.7%
- mortality at 100 µg/mL [3, 6]: 16.1%

SMILES: CC1=CC(=O)CC(C)(C)[C@@]1(O)/C=C/C(C)=C/C(=O)O [S-abscisic acid]
- Measured mortality rate ([1]; 1 mg/L): 7.9%
- Measured mortality rate ([1]; 10 mg/L): 8.3%
- Measured mortality rate ([1]; 100 mg/L): 10.3%

SMILES: CCc1ccc(C(=O)NN(C(=O)c2cc(C)cc(C)c2)C(C)(C)C)cc1 [Tebufenozide]
- mortality at 0.1 µg/mL [3, 6]: 10.3%
- mortality at 2 µg/mL [3, 6]: 17.2%
- mortality at 40 µg/mL [3, 6]: 46.4%

SMILES: CCCCc1c(C)c2ccc(OCc3ccccc3/C(=C\OC)C(=O)OC)cc2oc1=O [coumoxystrobin]
- Control efficacy (Rhizoctonia solani; 5 mg/L, A = compound I-72, B = coumoxystrobin): 44.3%
- Control efficacy (Rhizoctonia solani; 10 mg/L, A = compound I-72, B = coumoxystrobin): 61.9%
- Control efficacy (Rhizoctonia solani; 20 mg/L, A = compound I-72, B = coumoxystrobin): 81.5%

SMILES: CO/C=C(/C(=O)OC)c1ccccc1COc1cc(-c2ccc(Cl)cc2)nn1C [pyraoxystrobin]
- Control efficacy (Rhizoctonia solani; 5 mg/L, A = compound I-72, B = pyraoxystrobin): 42.8%
- Control efficacy (Rhizoctonia solani; 10 mg/L, A = compound I-72, B = pyraoxystrobin): 71.5%
- Control efficacy (Rhizoctonia solani; 20 mg/L, A = compound I-72, B = pyraoxystrobin): 82.4%
